Common to all, as to assay type: biochemical
For one assay, the target named is T1, PI3K α (p110α/p85α) (Homo sapiens, UniProt P42336).
T1 construct: purchased Upstate / Millipore Corporation
Briefly: PI 3-Kinase (human) HTRF assay, PI3K α. The conditions noted are these: read-out: PI3K α IC50. A general note: TR-FRET usually uses a lanthanide donor and a delayed reading to cut background.

For a further assay, the target named is T2, PI3K γ (p110γ) (Homo sapiens, UniProt P48736).
T2 construct: purchased Upstate / Millipore Corporation
T2 sequence (P48736 whole entry): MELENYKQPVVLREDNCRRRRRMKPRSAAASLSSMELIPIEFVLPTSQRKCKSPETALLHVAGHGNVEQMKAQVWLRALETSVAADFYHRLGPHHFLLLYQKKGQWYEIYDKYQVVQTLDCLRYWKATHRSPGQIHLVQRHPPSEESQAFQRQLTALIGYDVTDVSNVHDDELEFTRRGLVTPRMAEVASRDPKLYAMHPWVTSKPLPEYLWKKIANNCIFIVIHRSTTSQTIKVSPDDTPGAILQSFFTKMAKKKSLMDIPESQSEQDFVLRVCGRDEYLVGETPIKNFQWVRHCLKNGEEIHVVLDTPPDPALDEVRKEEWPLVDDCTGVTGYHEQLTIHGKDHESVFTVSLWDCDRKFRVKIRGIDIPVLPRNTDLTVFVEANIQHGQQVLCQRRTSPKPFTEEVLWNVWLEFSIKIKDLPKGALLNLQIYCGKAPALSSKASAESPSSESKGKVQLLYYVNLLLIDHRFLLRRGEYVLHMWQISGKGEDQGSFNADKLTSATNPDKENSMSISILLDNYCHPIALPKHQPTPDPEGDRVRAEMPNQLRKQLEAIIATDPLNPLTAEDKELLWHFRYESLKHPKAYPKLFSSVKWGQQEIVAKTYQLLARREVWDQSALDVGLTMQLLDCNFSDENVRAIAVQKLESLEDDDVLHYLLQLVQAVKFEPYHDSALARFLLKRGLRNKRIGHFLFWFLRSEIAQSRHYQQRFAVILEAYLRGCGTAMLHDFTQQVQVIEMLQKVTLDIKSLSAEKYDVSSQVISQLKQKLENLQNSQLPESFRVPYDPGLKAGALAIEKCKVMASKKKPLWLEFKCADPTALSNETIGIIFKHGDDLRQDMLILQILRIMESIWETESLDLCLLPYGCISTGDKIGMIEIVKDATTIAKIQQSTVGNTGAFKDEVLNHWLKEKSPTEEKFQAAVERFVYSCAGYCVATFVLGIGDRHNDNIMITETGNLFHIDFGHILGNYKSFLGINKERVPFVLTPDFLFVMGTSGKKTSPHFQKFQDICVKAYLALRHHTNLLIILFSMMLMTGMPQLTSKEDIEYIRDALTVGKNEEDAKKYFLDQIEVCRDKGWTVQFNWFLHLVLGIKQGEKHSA
Briefly: PI 3-Kinase (human) HTRF assay, PI3K γ. The conditions noted are these: read-out: PI3K γ IC50.

Another assay addresses T3, PI3K β (p110β/p85α) (Homo sapiens, UniProt P42338).
T3 construct: purchased Upstate / Millipore Corporation
Briefly: PI 3-Kinase (human) HTRF assay, PI3K β. The note with it: read-out: PI3K β IC50.

The target in the next assay is T4, PI3K δ (Homo sapiens, UniProt O00329).
T4 construct: purchased Upstate / Millipore Corporation
T4 sequence (O00329 whole entry): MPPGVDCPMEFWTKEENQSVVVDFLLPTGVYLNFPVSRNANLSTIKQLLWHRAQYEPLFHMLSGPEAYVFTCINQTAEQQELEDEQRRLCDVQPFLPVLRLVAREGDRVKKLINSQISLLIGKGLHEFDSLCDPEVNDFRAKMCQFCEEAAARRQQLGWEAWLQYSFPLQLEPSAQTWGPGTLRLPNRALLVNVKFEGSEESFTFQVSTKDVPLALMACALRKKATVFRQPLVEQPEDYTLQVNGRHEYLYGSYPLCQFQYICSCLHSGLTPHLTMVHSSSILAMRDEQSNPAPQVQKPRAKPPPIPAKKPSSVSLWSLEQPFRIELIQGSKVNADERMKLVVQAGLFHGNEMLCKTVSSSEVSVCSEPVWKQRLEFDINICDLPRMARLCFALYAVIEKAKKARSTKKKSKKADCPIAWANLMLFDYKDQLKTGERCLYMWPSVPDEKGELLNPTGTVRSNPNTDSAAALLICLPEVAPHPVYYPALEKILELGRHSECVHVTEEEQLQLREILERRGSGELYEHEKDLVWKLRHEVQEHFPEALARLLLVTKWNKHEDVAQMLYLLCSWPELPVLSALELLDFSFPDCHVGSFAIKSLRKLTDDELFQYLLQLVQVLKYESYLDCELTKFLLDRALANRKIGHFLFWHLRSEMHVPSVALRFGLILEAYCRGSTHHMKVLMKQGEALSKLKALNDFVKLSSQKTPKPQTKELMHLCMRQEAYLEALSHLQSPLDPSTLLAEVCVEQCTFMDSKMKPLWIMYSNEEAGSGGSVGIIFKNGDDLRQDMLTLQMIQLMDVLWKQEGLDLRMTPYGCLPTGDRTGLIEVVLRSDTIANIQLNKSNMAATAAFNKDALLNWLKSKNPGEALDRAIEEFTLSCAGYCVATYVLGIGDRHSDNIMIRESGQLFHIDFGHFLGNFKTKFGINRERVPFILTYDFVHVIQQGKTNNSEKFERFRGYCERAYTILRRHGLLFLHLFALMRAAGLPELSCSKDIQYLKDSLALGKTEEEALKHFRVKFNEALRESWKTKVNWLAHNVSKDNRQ
T4 sequence (P27986 whole entry partner): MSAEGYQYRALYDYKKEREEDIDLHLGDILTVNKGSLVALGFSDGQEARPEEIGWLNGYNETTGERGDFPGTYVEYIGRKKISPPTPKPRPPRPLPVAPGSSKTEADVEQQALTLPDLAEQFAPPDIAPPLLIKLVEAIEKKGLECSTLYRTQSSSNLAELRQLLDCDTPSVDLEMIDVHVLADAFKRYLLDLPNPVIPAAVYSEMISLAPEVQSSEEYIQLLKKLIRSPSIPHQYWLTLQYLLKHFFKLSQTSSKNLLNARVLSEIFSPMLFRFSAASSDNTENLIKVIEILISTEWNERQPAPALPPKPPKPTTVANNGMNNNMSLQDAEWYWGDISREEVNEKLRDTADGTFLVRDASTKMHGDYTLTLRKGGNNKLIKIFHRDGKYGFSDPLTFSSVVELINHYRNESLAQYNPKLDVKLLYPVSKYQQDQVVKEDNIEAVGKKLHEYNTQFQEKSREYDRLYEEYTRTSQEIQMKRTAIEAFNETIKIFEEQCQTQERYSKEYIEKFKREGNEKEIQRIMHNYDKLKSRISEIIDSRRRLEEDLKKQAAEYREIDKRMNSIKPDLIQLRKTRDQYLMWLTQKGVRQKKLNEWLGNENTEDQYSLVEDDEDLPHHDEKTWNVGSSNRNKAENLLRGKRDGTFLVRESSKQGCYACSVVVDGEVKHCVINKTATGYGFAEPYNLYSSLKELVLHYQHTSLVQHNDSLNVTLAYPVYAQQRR
Briefly: PI 3-Kinase (human) HTRF assay, PI3K δ. The conditions noted are these: read-out: PI3K δ IC50.

Structures are written as SMILES.

T1 sequence (P42336 whole entry): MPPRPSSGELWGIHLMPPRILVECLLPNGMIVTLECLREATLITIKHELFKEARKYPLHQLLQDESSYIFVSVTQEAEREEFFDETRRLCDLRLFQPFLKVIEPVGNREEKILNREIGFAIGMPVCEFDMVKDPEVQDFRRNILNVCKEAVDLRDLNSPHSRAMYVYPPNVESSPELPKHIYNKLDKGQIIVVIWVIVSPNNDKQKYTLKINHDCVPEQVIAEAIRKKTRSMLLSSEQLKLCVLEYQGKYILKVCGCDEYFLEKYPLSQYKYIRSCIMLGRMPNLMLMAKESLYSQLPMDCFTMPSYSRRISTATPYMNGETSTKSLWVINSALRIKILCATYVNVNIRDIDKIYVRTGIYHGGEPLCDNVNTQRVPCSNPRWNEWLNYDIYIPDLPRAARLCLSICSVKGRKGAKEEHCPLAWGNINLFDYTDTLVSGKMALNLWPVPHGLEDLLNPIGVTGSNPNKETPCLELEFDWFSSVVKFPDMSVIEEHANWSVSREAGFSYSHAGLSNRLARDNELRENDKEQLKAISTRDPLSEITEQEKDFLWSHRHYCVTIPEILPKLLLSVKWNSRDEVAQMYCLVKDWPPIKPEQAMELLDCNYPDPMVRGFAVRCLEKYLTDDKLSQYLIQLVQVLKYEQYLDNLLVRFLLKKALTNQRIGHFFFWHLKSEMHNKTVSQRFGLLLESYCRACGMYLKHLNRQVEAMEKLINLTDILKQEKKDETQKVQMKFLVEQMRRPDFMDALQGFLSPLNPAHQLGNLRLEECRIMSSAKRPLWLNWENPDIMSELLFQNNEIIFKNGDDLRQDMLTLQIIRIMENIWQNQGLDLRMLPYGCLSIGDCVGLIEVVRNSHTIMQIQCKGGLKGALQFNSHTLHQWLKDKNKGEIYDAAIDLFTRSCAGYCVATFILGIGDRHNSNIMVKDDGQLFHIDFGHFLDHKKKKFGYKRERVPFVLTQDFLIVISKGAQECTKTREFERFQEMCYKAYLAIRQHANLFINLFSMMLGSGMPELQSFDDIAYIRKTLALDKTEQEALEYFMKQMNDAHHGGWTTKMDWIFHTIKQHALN
T1 sequence (P27986 whole entry partner): as the sequence (P27986 whole entry partner) above
T3 sequence (P42338 whole entry): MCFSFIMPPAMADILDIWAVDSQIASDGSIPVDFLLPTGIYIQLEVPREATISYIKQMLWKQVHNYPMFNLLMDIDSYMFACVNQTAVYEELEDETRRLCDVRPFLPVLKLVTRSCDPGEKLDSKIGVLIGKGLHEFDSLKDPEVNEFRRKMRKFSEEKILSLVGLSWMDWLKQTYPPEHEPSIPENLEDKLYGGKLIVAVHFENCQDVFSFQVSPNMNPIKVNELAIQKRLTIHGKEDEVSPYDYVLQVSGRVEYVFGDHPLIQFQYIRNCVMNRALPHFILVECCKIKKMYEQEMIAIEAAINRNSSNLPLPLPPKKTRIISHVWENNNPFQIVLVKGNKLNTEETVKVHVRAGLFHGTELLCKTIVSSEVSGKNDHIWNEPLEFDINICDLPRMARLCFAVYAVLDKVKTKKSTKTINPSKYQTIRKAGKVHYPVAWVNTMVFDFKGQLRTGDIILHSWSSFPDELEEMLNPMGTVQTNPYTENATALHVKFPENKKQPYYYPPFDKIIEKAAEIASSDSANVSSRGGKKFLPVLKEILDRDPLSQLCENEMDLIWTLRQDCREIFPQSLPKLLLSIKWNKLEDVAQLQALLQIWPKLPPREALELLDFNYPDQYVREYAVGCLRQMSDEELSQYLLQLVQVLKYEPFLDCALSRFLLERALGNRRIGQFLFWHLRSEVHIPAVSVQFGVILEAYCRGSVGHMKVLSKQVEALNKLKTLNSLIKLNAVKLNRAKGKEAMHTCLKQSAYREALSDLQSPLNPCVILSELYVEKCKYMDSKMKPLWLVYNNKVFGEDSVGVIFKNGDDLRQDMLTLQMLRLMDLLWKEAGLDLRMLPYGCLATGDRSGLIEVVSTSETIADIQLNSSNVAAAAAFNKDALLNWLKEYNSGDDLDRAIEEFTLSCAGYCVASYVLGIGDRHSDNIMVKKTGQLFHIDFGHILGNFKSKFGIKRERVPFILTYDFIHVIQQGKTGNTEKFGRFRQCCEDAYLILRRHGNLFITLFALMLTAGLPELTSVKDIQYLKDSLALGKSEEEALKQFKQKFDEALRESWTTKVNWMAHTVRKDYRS
T3 sequence (P27986 whole entry partner): as the sequence (P27986 whole entry partner) above

As usually defined, the IC50 is the concentration that gives 50% inhibition. As for `CO[C@H]1CCN(C(=O)c2cnc3ccc(-c4ccc5oc(N)nc5c4)cn23)C1` [Compound 463], the IC50 was under 100 nM on PI3K α (p110α/p85α), under 1000 nM on PI3K γ (p110γ), under 10000 nM on PI3K β (p110β/p85α) and under 10000 nM at PI3K δ.

For the compound `Nc1cn2cc(-c3ccc4nc(N)oc4c3)ccc2n1` [Compound 247], the half-maximal inhibitory concentration (IC50) was over 10000 nM on PI3K α (p110α/p85α), under 10000 nM at PI3K γ (p110γ), under 10000 nM at PI3K β (p110β/p85α) and over 10000 nM on PI3K δ.

`CCN(CC)CCNc1cnc2ccc(-c3ccc4oc(N)nc4c3)cc2n1` [Compound 218]: the IC50 was under 1000 nM on PI3K α (p110α/p85α), under 10000 nM on PI3K γ (p110γ), under 1000 nM at PI3K β (p110β/p85α) and under 1000 nM on PI3K δ.

For the compound `Nc1nc2cc(-c3ccc4ncc(NCCN5CCCC5)nc4c3)ccc2o1` [Compound 219], the IC50 at PI3K α (p110α/p85α), on PI3K γ (p110γ), at PI3K β (p110β/p85α) and at PI3K δ was under 1000 nM throughout.

`Nc1nc2cc(-c3ccc4ncc(C(=O)N5CC(N6CCC(F)(F)C6)C5)n4c3)ccc2o1` [Compound 502]: the IC50 on PI3K α (p110α/p85α) is under 100 nM; at PI3K γ (p110γ), under 1000 nM; at PI3K β (p110β/p85α), over 10000 nM; at PI3K δ, under 10000 nM.

On to `Nc1nc2cccc(-c3ccc4ncc(C(=O)N5CCOCC5)n4c3)c2o1` [Compound 484], for which the concentration for half-maximal inhibition (IC50) at PI3K α (p110α/p85α) was under 1000 nM; on PI3K γ (p110γ), over 10000 nM; at PI3K β (p110β/p85α), over 10000 nM; on PI3K δ, over 10000 nM.

As to `Nc1nc2cc(-c3ccc4ncc(N5CCN(C(=O)[C@H](N)CO)CC5)nc4c3)ccc2o1` [Compound 299], the IC50 on PI3K α (p110α/p85α) was under 100 nM; on PI3K γ (p110γ), under 100 nM; at PI3K β (p110β/p85α), under 1000 nM; at PI3K δ it was under 100 nM.

With `COc1nc(-c2ccc3oc(N)nc3c2)cnc1N` [Compound 238], the IC50 on PI3K α (p110α/p85α) is under 1000 nM; on PI3K γ (p110γ), under 1000 nM; at PI3K β (p110β/p85α) it was under 1000 nM; on PI3K δ it was under 10000 nM.

On to `Nc1nc2cc(-c3ccc4ncc(N5CC(C(=O)N6CCN(CC7CC7)CC6)C5)nc4c3)ccc2o1` [Compound 287], for which the IC50 at PI3K α (p110α/p85α) is under 100 nM; at PI3K γ (p110γ), under 1000 nM; at PI3K β (p110β/p85α), under 10000 nM; on PI3K δ, under 1000 nM.

With `Cc1ccc(-c2cnc3ccc(-c4ccc5oc(N)nc5c4)cc3n2)cn1` [Compound 194], the 50% inhibitory concentration (IC50) is under 100 nM at PI3K α (p110α/p85α), under 100 nM at PI3K γ (p110γ), over 10000 nM at PI3K β (p110β/p85α) and over 10000 nM at PI3K δ.

`CCN1CCN(c2cnc3ccc(-c4ccc5oc(N)nc5c4)cc3n2)CC1` [Compound 152]: the IC50 on PI3K α (p110α/p85α) was under 100 nM; on PI3K γ (p110γ), under 1000 nM; at PI3K β (p110β/p85α) it was under 100 nM; on PI3K δ, under 10000 nM.

`Nc1nc2cc(-c3cc4nccc(-c5ccncc5)c4s3)ccc2o1` [Compound 14]: the IC50 is under 10000 nM at PI3K α (p110α/p85α), under 10000 nM at PI3K γ (p110γ), over 10000 nM on PI3K β (p110β/p85α) and over 10000 nM at PI3K δ.

On to `C[C@H]1CN(C(=O)C2CN(c3cnc4ccc(-c5ccc6oc(N)nc6c5)cc4n3)C2)CCN1` [Compound 268], for which the IC50 was under 100 nM at PI3K α (p110α/p85α), under 1000 nM on PI3K γ (p110γ), under 10000 nM on PI3K β (p110β/p85α) and under 10000 nM on PI3K δ.

For the compound `CC(=O)N1CCN(C(=O)c2cnc3ccc(-c4ccc5oc(N)nc5c4)cn23)CC1` [Compound 113], the concentration for half-maximal inhibition (IC50) at PI3K α (p110α/p85α) was under 100 nM; on PI3K γ (p110γ), under 1000 nM; at PI3K β (p110β/p85α) it was over 10000 nM; at PI3K δ, over 10000 nM.

With `COc1ncc(-c2ccc3ncc(C(=O)N4CCOCC4)n3c2)cc1NS(=O)(=O)c1ccc(F)cc1` [Compound 421], the IC50 on PI3K α (p110α/p85α) is under 100 nM; at PI3K γ (p110γ), under 100 nM; at PI3K β (p110β/p85α), under 1000 nM; on PI3K δ, under 100 nM.

Take `CN1CCN(c2ccnc3ccc(-c4ccc5oc(N)nc5c4)cc23)CC1` [Compound 21]: the half-maximal inhibitory concentration (IC50) at PI3K α (p110α/p85α) is under 1000 nM; on PI3K γ (p110γ), under 10000 nM; on PI3K β (p110β/p85α), under 10000 nM; on PI3K δ, under 10000 nM.
